Holding throughout (assay type): functional, Cricetulus griseus
The subject of assay [1] is Cricetinae gen. sp. Nature of the assay: Dose required to inhibit cholesterol absorption in cholesterol fed hamster model.
Assay [2] relates to Cricetinae gen. sp. In words: Compound was tested for percent reduction of liver cholesterol esters absorption in cholesterol fed hamster model at a dose of 3 mg/kg/day.
Assay [3] relates to Cricetinae gen. sp. Nature of the assay: Compound was tested for percent reduction of serum cholesterol absorption in cholesterol fed hamster model at a dose of 3 mg/kg/day.

Each structure is given as a SMILES string.

A word on the ED50: it is the dose that gives a 50% effect, or the effect in half of the subjects.

Regarding `O=C1[C@H](CC[C@H](O)c2ccc(F)cc2)[C@@H](c2ccc(O[C@@H]3O[C@H](CO)[C@@H](O)[C@H](O)[C@H]3O)cc2)N1c1ccc(F)cc1`, the 50% effect level with Cricetinae gen. sp. [1] (ED50) was put at a dose of 0.08 mg/kg/day. Also, the Reduction in the assay on Cricetinae gen. sp. [2] is -92%; in the assay on Cricetinae gen. sp. [3] it was -48%.
The like results for `O=C(O)[C@H]1O[C@@H](Oc2ccc([C@@H]3[C@@H](CC[C@H](O)c4ccc(F)cc4)C(=O)N3c3ccc(F)cc3)cc2)[C@H](O)[C@@H](O)[C@@H]1O` were, in that order, 0.17 mg/kg/day, -95% and -50%.
The like results for `O=C1[C@H](CC[C@H](O)c2ccc(F)cc2)[C@@H](c2ccc(O)cc2)N1c1ccc(F)cc1` [EZETIMIBE] were, in that order, 0.04 mg/kg/day, -93% and -43%.
In the same order, the values of `COC(=O)[C@H]1O[C@@H](Oc2ccc([C@@H]3[C@@H](CC[C@H](O)c4ccc(F)cc4)C(=O)N3c3ccc(F)cc3)cc2)[C@H](O)[C@@H](O)[C@@H]1O` are 0.04 mg/kg/day, -89% and -48%.
As to `COC(=O)[C@H]1O[C@@H](Oc2ccc([C@@H]3[C@@H](CC[C@H](OC(C)=O)c4ccc(F)cc4)C(=O)N3c3ccc(F)cc3)cc2)[C@H](OC(C)=O)[C@@H](OC(C)=O)[C@@H]1OC(C)=O`, the ED50 with Cricetinae gen. sp. [1] turned out to be 0.09 mg/kg/day. The Reduction in the assay on Cricetinae gen. sp. [2] is reported as -96%; in the assay with Cricetinae gen. sp. [3] it was -53%.
On to `CC(=O)OC[C@H]1O[C@@H](Oc2ccc([C@@H]3[C@@H](CC[C@H](OC(C)=O)c4ccc(F)cc4)C(=O)N3c3ccc(F)cc3)cc2)[C@H](OC(C)=O)[C@@H](OC(C)=O)[C@@H]1OC(C)=O`, for which the values for the Reduction in the assay with Cricetinae gen. sp. [2] and in the assay on Cricetinae gen. sp. [3] were -58% and -14%, respectively.
`COc1ccc([C@@H]2[C@@H](CCCc3ccccc3)C(=O)N2c2ccc(OC)cc2)cc1` [SCH-48461]: in the assay with Cricetinae gen. sp. [1], the ED50 was found to be 2 mg/kg/day.
Turning to `CC(=O)OC[C@H]1O[C@@H](O[C@H]2[C@H](OC(C)=O)[C@@H](OC(C)=O)[C@H](Oc3ccc([C@@H]4[C@@H](CC[C@H](OC(C)=O)c5ccc(F)cc5)C(=O)N4c4ccc(F)cc4)cc3)O[C@@H]2COC(C)=O)[C@H](OC(C)=O)[C@@H](OC(C)=O)[C@@H]1OC(C)=O`, the Reduction in the assay with Cricetinae gen. sp. [2] is listed as -75%; in the assay with Cricetinae gen. sp. [3], -43%.
In the case of `O=C1[C@H](CC[C@H](O)c2ccc(F)cc2)[C@@H](c2ccc(O[C@@H]3O[C@H](CO)[C@@H](O[C@@H]4O[C@H](CO)[C@@H](O)[C@H](O)[C@H]4O)[C@H](O)[C@H]3O)cc2)N1c1ccc(F)cc1`, in the assay with Cricetinae gen. sp. [1], the 50% effective dose (ED50) amounted to 0.01 mg/kg/day. Also, the Reduction in the assay with Cricetinae gen. sp. [2] is reported as -90%; in the assay on Cricetinae gen. sp. [3] it was -36%.

Source of the values: ChEMBL document CHEMBL1130740, “Sugar-substituted 2-azetidinone cholesterol absorption inhibitors: enhanced potency by modification of the sugar” (1998).
